In US7994116B2, “Methods for reduction of adhesion formation using cytokine inhibitors” (Pharmasurgics In Sweden AB, priority 2002, dated 2011):

How the values were obtained:
TNF = settings: following single administration in the dosage used (4 mg/kg); cited from earlier work
[1] = system: rats with a standardized laminectomy; assay: laminectomy model on the rat, infliximab treatment: wound healing and scar formation; type: in vivo; settings: laminectomy of 4th lumbar vertebra, 4 mg/kg intraperitoneal
Method: Four rats were anaesthetized with a standardized combination of pentobarbital and diazepam. The skin on the back was shaved. Through a midline incision, a laminectomy of the 4th lumbar vertebra was performed. The spinal muscles and the skin was sutured. Two rats received an intraperitoneal injection of 4 mg/kg of infliximab. Infliximab is a monoclonal antibody towards TNF with an inhibiting action with a duration of 1-2 months following single administration in the dosage used. The other two rats received an intraperitoneal injection of saline. After 2 weeks, the rats were reanaesthesized and wound healing and scar formation were evaluated by a person being unaware of the experimental protocol. Wound healing was considered normal in both groups. […] In the non-treated group, there was a somewhat more dense lump of connective tissue that was adherent to the spinal dura mater.

## infliximab
TNF
  duration of inhibiting action towards TNF: 1-2 months
[1]; after 2 weeks, saline group: adherent to the dura mater
  adhesion of connective tissue to the spinal dura mater: did not adhere to the spinal dura mater and was easy to remove
[1]; after 2 weeks, saline group: somewhat more dense lump of connective tissue
  scar formation: tissue filling the previous location of the lamina: soft connective tissue
[1]; evaluated after 2 weeks, blinded
  wound healing: normal
